Assay results taken from US5665386A, “Use of essential oils to increase bioavailability of oral pharmaceutical compounds” (priority 1995, dated 1997).
Where “and” joins values, the source holds several entries; their conditions need not be identical. Identical values can stand only once. Like-named read-outs stand apart in the source and are kept apart here.

Tested on: rat cytochrome P450 3A
[1] = Table 2, 0.0001 wt. % component
[2] = Table 2, repeat 0.0001 wt. % (SD in parentheses)

Row | Compound | % inhibition of cyclosporine metabolism (Table 2, 0.001 wt. % component) [%] | % inhibition of cyclosporine metabolism (Table 2, 0.01 wt. % component) [%] | % inhibition of cyclosporine metabolism [1] [%] | other results
1 | C=C(C)[C@H]1CC=C(C)CC1 [Limonene-(R)-(+), p-Mentha-1,8-diene] | 20 | 84 |  | 
2 | CC1=CC=C(C(C)C)CC1 [Terpinene-α, p-Mentha-1,3-diene] | 28 |  | -6 | 
3 | CC(C)=CCCC(C)CCO (stereo not drawn) [Citronellol-(DL)-(β), 3,7-Dimethyl-6-octen-1-ol] | 86 | 95 | 41 | % inhibition of cyclosporine metabolism, repeat [2]: 35 (4) %
4 | CC(C)=CCC/C(C)=C/CC/C(C)=C/CO [Farnesol, trans-, trans-, 3,7,11-Trimethyl-2,6,10-dodecatrien-1-ol] | 82 |  | 49 | 
5 | CC=C(C)C=CC=C(C)C [Allo Ocimene, 2,6-Dimethyl-2,4,6-octatriene] | 22 |  | 6 | 
6 | C=C1CC/C=C(\C)CC[C@@H]2[C@@H]1CC2(C)C [Caryophyllene, trans-(-), β Caryophyllene] | 85 |  | 26 | 
7 | CC1(C)[C@H]2CC[C@](C)(C2)[C@H]1O [Fenchol-(1R)-endo-(+), 1,3,3-Trimethylbicyclo [2.2.1] heptan-2-ol] | 74 | 100 | 18 | 
8 | Cc1ccc(C(C)C)cc1O [Carvacrol, 5-isoProply-2-methylphenol] | 93 | 97 | 11 | 
9 | C=CCc1ccc(O)c(OC)c1 [Eugenol, 4-Allyl-2-methoxyphenol] | 66 | 100 | 9.8 | 
10 | CC(=O)OC/C=C(\C)CCC=C(C)C [Geranyl Acetate, trans-3,7-Dimethyl-2,6-octadien-1-yl acetate] | 51.5 | 73 |  | 
11 | COc1cc(CNC(=O)CCCC/C=C/C(C)C)ccc1O [Capsaicin, trans-8-Methyl-N-vanillyl-6 nonenamide] | 68 |  | 27 | 
12 | CC(C)=CCC/C(C)=C/C=O [Citral] | 54 | 99 | 44 | 
13 | CC(=O)N1CCN(c2ccc(OCC3COC(Cn4ccnc4)(c4ccc(Cl)cc4Cl)O3)cc2)CC1 (centres unmarked) [Ketoconazole, reference compound] |  |  |  | % inhibition of cyclosporine metabolism (Table 3, 0.000001%): 8%; % inhibition of cyclosporine metabolism (Table 3, 0.000005%): 20%; % inhibition of cyclosporine metabolism (Table 3, 0.00001%): 42%; % inhibition of cyclosporine metabolism (Table 3, 0.00005%): 100%
14 | CC/C=C\CC1=C(C)CCC1=O [Jasmone, cis-, 3-Methyl-2-(2-pentenyl)-2-cyclopenten-1-one] | 68 |  | 16.0 | 
15 | CC(C)=C1CC[C@@H](C)CC1=O [Pulegone-(R)-(+), p-Menth-4(8)-en-3-one] | 31 |  | -17 | 
16 | CC1(C)C(=O)[C@]2(C)CC[C@H]1C2 [Fenchone-(1R)-(-), 1,3,3-Trimethylbicyclo [2.2.1] heptan-2-one] | 38 |  | 14 | 
17 | C=CCc1ccc(OC)cc1 [Estragole, 4-Allylanisole] | 69.2 | 100 | 7 | 
18 | C=C(C)C1CC=C(C)C(O)C1 (single isomer, unassigned) [Carveol-(-), p-Mentha-6,8-dien-2-ol] | 60 |  | 2 | 
19 | O=C/C=C/c1ccccc1 [Cinnamic Aldehyde, trans-, 3-Phenylpropenaldehyde] | 29.0 | 78 |  | 

Row | Compound | % inhibition of cyclosporine metabolism (Table 2, 0.001 wt. % component) [%] | % inhibition of cyclosporine metabolism (Table 2, 0.01 wt. % component) [%] | % inhibition of cyclosporine metabolism [1] [%] | other results
20 | CC12CCC(CC1=O)C2(C)C (racemic) [Camphor-(±), 1,7,7-Trimethylbicyclo [2.2.1] heptan-2-one] |  |  |  | % inhibition of cyclosporine metabolism, repeat (microsomes, pH 7.4): 53 (3) %
21 | CC1=CCC2C(C1)C2(C)C (centres unmarked) [Carene-3-(Δ)] | 34 |  | -26 | 
22 | C/C=C/c1ccc(OC)cc1 [Anethole, trans-, 4-Propenylanisole] | 53 | 100 |  | 
23 | CCOC(=O)/C=C/c1ccccc1 [Ethyl Cinnamate, trans-, Ethyl 3-phenylpropenoic acid] | -16 |  | -13 | 
24 | C=C1C2CCC(C2)C1(C)C (single isomer, unassigned) [Camphene-(+), 2,2-Dimethyl-3-methylenebicyclo[2.2.1]heptane] | 12.4 |  | -49 | 
25 | C=C(C)[C@H]1CC=C(C)C(=O)C1 [Carvone-(S)-(+), p-Mentha-6,8-dien-2-one] | 70.5 |  | 30 | 
26 | O=C(/C=C/c1ccccc1)OCc1ccccc1 [Benzyl Cinnamate, Benzyl 3-phenylpropenoic acid] | -45 |  | 7 | 
27 | CCOc1cc(C=O)ccc1O [Ethyl Vanillin, 3-Ethoxy-4-hydroxybenzalehyde] |  | 58 |  | 
28 | CC1=CCC(O)(C(C)C)CC1 (centres unmarked) [Terpinen-4-ol, p-Menth-1-en-4-ol] | 80 | 100 | 3.81 | 
29 | C=C1CC[C@H]2C[C@@H]1C2(C)C [Pinene-(1S)-(-)-β, 6,6-Dimethyl-2-methylenebicyclo[3.1.1]heptane] | 60 | 88 | -10 | 
30 | C=CC(C)(O)CCC=C(C)C (racemic) [Linalool-(±), 3,7-Dimethyl-1,6-octadien-3-ol] | 72.0 | 85 | 41 | % inhibition of cyclosporine metabolism, repeat [2]: -7 (9) % and -5 (2) %
31 | CC(C)[C@@H]1CC[C@@H](C)CC1=O [Menthone-(-), p-Menthan-3-one] | 52 |  | 14 | 
32 | C=C(C)[C@@H]1CC=C(C)CC1 [Limonene-(S)-(-), p-Mentha-1,8-diene] | 30 | 82.3 |  | 
33 | COC(=O)c1ccccc1N [Methyl Anthranilate, Methyl 2-aminobenzoate] | 23 |  | -7 | 
34 | CCC=CCC1C(=O)CCC1CC(=O)OC (racemic) [Methyl Jasmonate-(±), Methyl-3-oxo-2-(2-pentenyl)-cyclopentane acetate] | 65 |  | -27 | 
35 | C=CC(=C)CCC=C(C)C [Myrcene-β, 7-Methyl-3-methylene-1,6-octadiene] | 13 |  | 0 | 
36 | CC1=CCC(C(C)(C)O)CC1 (stereo not drawn) [Terpineol-α, p-Menth-1-en-8-ol] | 86 | 100 | 13.4 | 
37 | C=C(C)[C@@H]1CC=C(C)C(=O)C1 [Carvone-(R)-(-), p-Mentha-6,8-dien-2-one] | 69 | 100 | 27 | 
38 | C=CC(C)(CCC=C(C)C)OC(C)=O (centres unmarked) [Linalyl Acetate, 3,7-Dimethyl-1,6-octadien-3-yl acetate] | 55.8 | 100 |  | 
